Data on 37 compounds can be found in ChEMBL document CHEMBL3046371, “Benzimidazole derivatives: synthesis, leishmanicidal effectiveness, and molecular docking studies” (Med Chem Res, 2013).

Structures are written as SMILES. Values after ≈ are worked out from the molar mass of the structure shown.

The test relates to Leishmania major. In words: Antileishmanial activity against promastigote form of Leishmania major after 72 hr by Neubauer counting analysis. The class given is functional, organism-based.

`CC(C)c1ccc(-c2nc3cc([N+](=O)[O-])ccc3[nH]2)cc1` gave an IC50 of 0.8 µg/mL (≈ 2.84 µM).
Regarding `c1cncc(-c2nc3ccccc3[nH]2)c1`, half-maximal inhibition (IC50) required 0.64 µg/mL (≈ 3.28 µM).
`O=[N+]([O-])c1ccc2[nH]c(-c3ccccc3[N+](=O)[O-])nc2c1` had an IC50 of 0.73 µg/mL (≈ 2.57 µM).
Regarding `Oc1ccc(-c2nc3ccccc3[nH]2)cc1`, the midpoint of inhibition, the IC50, lay at 0.92 µg/mL (≈ 4.38 µM). This IC50 and that of the compound before are within 1.5-fold of each other.
`O=[N+]([O-])c1ccc2[nH]c(-c3ccc(F)cc3)nc2c1` gave an IC50 of 0.77 µg/mL (≈ 2.99 µM).
`O=[N+]([O-])c1ccc2[nH]c(-c3ccc(Cl)cc3)nc2c1`: the IC50 is 0.64 µg/mL (≈ 2.34 µM).
Compound `COc1cccc(-c2nc3ccccc3[nH]2)c1` gave an IC50 of 0.77 µg/mL (≈ 3.43 µM).
Take `O=[N+]([O-])c1ccc2nc(-c3ccccc3Cl)[nH]c2c1`: the IC50 was 0.91 µg/mL (≈ 3.33 µM). This IC50 and that of the compound before are within 1.5-fold of each other.
For `Clc1ccc(-c2nc3ccccc3[nH]2)cc1`, inhibition was half-maximal at 0.72 µg/mL (≈ 3.15 µM) (IC50).
In turn, `COc1ccc(-c2nc3ccccc3[nH]2)cc1` gave an IC50 of 0.81 µg/mL (≈ 3.61 µM).
`COc1cccc(-c2nc3cc([N+](=O)[O-])ccc3[nH]2)c1` had a concentration for half-maximal inhibition (IC50) of 0.82 µg/mL (≈ 3.05 µM).
Then `O=[N+]([O-])c1ccc(-c2nc3cc([N+](=O)[O-])ccc3[nH]2)cc1`, with 0.75 µg/mL (≈ 2.64 µM).
Turning to `CCCCOc1ccc(-c2nc3cc([N+](=O)[O-])ccc3[nH]2)cc1`, 0.76 µg/mL (≈ 2.44 µM) corresponded to half-maximal inhibition (IC50).
Regarding `O=[N+]([O-])c1ccc2[nH]c(-c3ccccc3)nc2c1`, the IC50 came out at 0.8 µg/mL (≈ 3.34 µM).
For the compound `Cc1ccc(-c2nc3ccccc3[nH]2)o1`, the IC50 amounted to 0.84 µg/mL (≈ 4.24 µM).
The compound `c1ccc2[nH]c(-c3c[nH]c4ccccc34)nc2c1` registered an IC50 of 0.87 µg/mL (≈ 3.73 µM).
Turning to `O=[N+]([O-])c1ccc(-c2nc3ccccc3[nH]2)cc1`, the IC50 was determined as 0.71 µg/mL (≈ 2.97 µM). This IC50 and that of the compound before are within 1.5-fold of each other.
Then `Fc1ccc(-c2nc3ccccc3[nH]2)cc1`, with 0.79 µg/mL (≈ 3.72 µM); and `O=[N+]([O-])c1ccc2[nH]c(-c3c[nH]c4ccccc34)nc2c1`, with 0.62 µg/mL (≈ 2.23 µM).
For the compound `O=[N+]([O-])c1ccc2[nH]c(-c3cccs3)nc2c1`, the IC50 came out at 0.82 µg/mL (≈ 3.34 µM). The IC50 values of the last two compounds are within 1.5-fold of each other.
For the compound `O=[N+]([O-])c1ccc2[nH]c(-c3ccccn3)nc2c1`, the IC50 was determined as 0.73 µg/mL (≈ 3.04 µM).
`COc1ccc(-c2nc3cc([N+](=O)[O-])ccc3[nH]2)cc1`: the IC50 was 0.85 µg/mL (≈ 3.16 µM).
Compound `O=[N+]([O-])c1ccc2[nH]c(-c3ccc[nH]3)nc2c1` returned an IC50 of 0.91 µg/mL (≈ 3.99 µM).
Compound `O=[N+]([O-])c1ccc2[nH]c(-c3cccnc3)nc2c1` registered an IC50 of 0.79 µg/mL (≈ 3.29 µM).
`O=[N+]([O-])c1ccccc1-c1nc2ccccc2[nH]1` showed an IC50 of 0.69 µg/mL (≈ 2.88 µM). This IC50 and that of the compound before are within 1.5-fold of each other.
In turn, `c1csc(-c2nc3ccccc3[nH]2)c1` displayed an IC50 of 0.62 µg/mL (≈ 3.1 µM).
Compound `CCCCOc1ccc(-c2nc3ccccc3[nH]2)cc1` gave an IC50 of 0.65 µg/mL (≈ 2.44 µM).
In turn, `Cc1ccc(-c2nc3ccccc3[nH]2)cc1` gave an IC50 of 0.79 µg/mL (≈ 3.79 µM).
The result for `Clc1ccccc1-c1nc2ccccc2[nH]1` reads 0.78 µg/mL (≈ 3.41 µM).
Then `c1ccc2[nH]c(-c3ccncc3)nc2c1`, with 0.88 µg/mL (≈ 4.51 µM); and `O=[N+]([O-])c1cccc(-c2nc3cc([N+](=O)[O-])ccc3[nH]2)c1`, with 0.79 µg/mL (≈ 2.78 µM); and `Cc1ccc(-c2nc3cc([N+](=O)[O-])ccc3[nH]2)cc1`, with 0.88 µg/mL (≈ 3.47 µM).
In turn, `c1ccc(-c2nc3ccccc3[nH]2)cc1` returned an IC50 of 0.68 µg/mL (≈ 3.5 µM).
For the compound `Cc1ccc(-c2nc3cc([N+](=O)[O-])ccc3[nH]2)o1`, the IC50 was found to be 0.64 µg/mL (≈ 2.63 µM). The IC50 values of the last two compounds are within 1.5-fold of each other.
`c1c[nH]c(-c2nc3ccccc3[nH]2)c1`: the IC50 amounted to 0.63 µg/mL (≈ 3.44 µM).
For `CC(C)c1ccc(-c2nc3ccccc3[nH]2)cc1`, half-maximal inhibition (IC50) was put at 0.64 µg/mL (≈ 2.71 µM). This IC50 and that of the compound before are within 1.5-fold of each other.
The result for `O=[N+]([O-])c1cccc(-c2nc3ccccc3[nH]2)c1` reads 0.82 µg/mL (≈ 3.43 µM).

What is called IC50 is the point on the concentration scale where inhibition reaches its midpoint. A high value points to a need for much substance.
